{"source": "paper PMC12008195", "about": "(Scientific Reports, 2025)", "key": {"HepG-2 cells [1]": {"test_system": "HepG-2 cells", "assay": "Cell cycle analysis, propidium iodide flow cytometry", "format": "cell-based, human", "details": "3b at 6 µM"}, "Bcl-2": {"test_system": "Bcl-2", "assay": "RT-PCR gene expression of Bcl-2 in HepG-2 cells", "format": "cell-based, human", "details": "versus untreated cells"}, "HepG-2 cells [2]": {"test_system": "HepG-2 cells", "assay": "Annexin-V/propidium iodide staining assay", "format": "cell-based, human"}, "[3]": {"test_system": "HCT-116 (human colon cancer)", "details": "read-out: IC50 HCT-116; MTT, 24-hour exposure; cited from earlier work"}, "[4]": {"test_system": "HepG2 (hepatocellular carcinoma)", "details": "read-out: IC50 HepG-2; MTT, 24-hour exposure; cited from earlier work"}, "[5]": {"test_system": "MCF-7 (mammary gland breast cancer)", "details": "read-out: IC50 MCF-7; MTT, 24-hour exposure; cited from earlier work"}, "[6]": {"test_system": "WI-38 (human lung fibroblasts)", "details": "read-out: IC50 WI-38 human fibroblasts; MTT, normal non-cancer cells; cited from earlier work"}, "[7]": {"details": "cited from earlier work"}}}
{"smiles": "Cc1cc2c(cc1C)N[C@H](c1ccccc1)[C@@H](O)C(=O)N2", "note": "[Compound 3b, (3R,4R)−3-hydroxy-7,8-dimethyl-4-phenyl-1,3,4,5-tetrahydro-2 H-1,5-benzodiazepin-2-one]", "values": [{"measurement": "Increase of DNA content at G2/M phase compared to non-treated cells", "setting": "HepG-2 cells [1]", "value": 28, "unit": "%"}, {"measurement": "Gene expression fold change Bcl-2", "setting": "Bcl-2", "value": 0.339, "unit": "fold"}, {"measurement": "Fold increase in the proportion of necrotic cells versus control", "setting": "HepG-2 cells [2]", "value": 2.6, "unit": "fold"}, {"measurement": "IC50", "setting": "[3]", "value": 9.18, "unit": "µM"}, {"measurement": "IC50", "setting": "[4]", "value": 6.13, "unit": "µM"}, {"measurement": "IC50", "setting": "[5]", "value": 7.86, "unit": "µM"}, {"measurement": "IC50", "setting": "[6]", "value": 14, "unit": "µM"}, {"measurement": "Lipinski's rule of five", "setting": "[7]; MW ≤ 500 Da, LogP < 5, nHBD ≤ 5, nHBA ≤ 10, TPSA < 140 Å2", "value": "satisfied"}, {"measurement": "Predicted oral bioavailability", "setting": "[7]; in silico studies", "value": "good"}]}
